SMILES strings stand for the structures. *1 amine or outer side, *2 acyl side, *3 side chain or, on linkers, in order; H or OH if unused. Where a SMILES comes first, the peptide text is derived from it. Bridges are numbered along the chain shown (N, C = ends). Side-chain parts run from the residue outwards. [ ]: non-standard residue; d: D form. The star is where a group is joined. X11 = O=C(O)CN1CCN(CC(=O)O)CCN(CC(=O)NCCCOCCOCCOCCCN*)CCN(CC(=O)O)CC1; Ala(1-CH2CO2H-4-piperidyl) = N[C@@H](CC1CCN(CC(=O)O)CC1)C(=O)O; Ala(piperidin-4-yl) = O=C([C@H](CC1CCN([*:3])CC1)N[*:1])[*:2]; DOTA = O=C(O)CN1CCN(CC(=O)O)CCN(CC(=O)*)CCN(CC(=O)O)CC1; Trp(1-Me) = Cn1cc(C[C@H](N)C(=O)O)c2ccccc21; 2Nal = N[C@@H](Cc1ccc2ccccc2c1)C(=O)O; NMetBuAla = CN[C@@H](CC(C)(C)C)C(=O)O; mXylylene = c1cc(C[*:1])cc(C[*:2])c1; Nva(3-Et) = CCC(CC)[C@H](N)C(=O)O; Cha = N[C@@H](CC1CCCCC1)C(=O)O; AllylGly = C=CC[C@H](N)C(=O)O; Chg = N[C@H](C(=O)O)C1CCCCC1; Suc = O=C(CCC(=O)[*:2])[*:1]; Nle = CCCC[C@H](N)C(=O)O; Dab = NCC[C@H](N)C(=O)O; CH2 = C([*:1])[*:2]

In this assay the target is T1, DLL3 (Homo sapiens, UniProt Q9NYJ7).
T1 sequence (Q9NYJ7 27-618): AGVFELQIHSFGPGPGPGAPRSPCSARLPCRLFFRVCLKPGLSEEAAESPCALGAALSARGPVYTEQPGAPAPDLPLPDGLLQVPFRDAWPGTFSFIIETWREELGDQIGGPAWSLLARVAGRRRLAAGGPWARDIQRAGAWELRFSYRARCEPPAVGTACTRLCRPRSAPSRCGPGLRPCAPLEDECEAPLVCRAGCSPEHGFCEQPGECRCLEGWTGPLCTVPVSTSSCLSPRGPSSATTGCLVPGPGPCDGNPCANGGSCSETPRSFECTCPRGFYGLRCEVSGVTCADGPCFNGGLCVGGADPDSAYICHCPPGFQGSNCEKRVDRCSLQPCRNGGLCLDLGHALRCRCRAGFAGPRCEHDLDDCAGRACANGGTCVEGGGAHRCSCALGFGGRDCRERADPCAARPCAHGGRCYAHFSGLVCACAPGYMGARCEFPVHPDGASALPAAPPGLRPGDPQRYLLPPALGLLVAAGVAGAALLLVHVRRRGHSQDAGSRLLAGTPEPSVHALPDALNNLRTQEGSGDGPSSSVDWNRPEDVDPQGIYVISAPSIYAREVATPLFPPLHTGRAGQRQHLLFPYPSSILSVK
Nature of the assay: SPR KD, biotinylated human DLL3 on streptavidin chip (Table 8). On the set-up: biotin (biotinylated). The following applies: biotinylated human DLL3 on streptavidin sensor chip, 25° C., 1:1 binding model; read-out: SPR KD. The text has this: Biotinylated target ligand human DLL3 was immobilized on a streptavidin sensor chip. A reference surface was set up for nonspecific binding and refractive index changes. […] Sensorgram curves were fitted with 1:1 binding model, and affinity and kinetic parameters were obtained using Biacore Insight evaluation 4.0. software.
With `CCC(CC)[C@H](NC(=O)[C@@H](NC(=O)[C@H](Cc1c[nH]c2ccccc12)NC(C)=O)[C@@H](C)O)C(=O)N[C@H]1CSSC[C@@H](C(=O)N[C@@H](Cc2c[nH]c3ccccc23)C(=O)N2CCC[C@H]2C(N)=O)NC(=O)[C@H](CC(=O)O)NC(=O)[C@H](Cc2cnc[nH]2)NC(=O)[C@H](Cc2c[nH]c3ccccc23)NC(=O)[C@H](CC(N)=O)NC(=O)[C@H](CC(N)=O)NC1=O` [compound 337, Ac-W-T-(Env)-C(3)-N-N-W-H-D-C(3)-W-P-CONH2] (Ac-WT[Nva(3-Et)]CNNWHDCWP-NH2; disulfide 4-10), the equilibrium dissociation constant (Kd) – broadly, a measure of binding affinity in units of concentration – lay within 1 to 10 nM.

For the compound `CC(=O)N[C@@H](Cc1c[nH]c2ccccc12)C(=O)N[C@H](C(=O)N[C@H](C(=O)N[C@H]1CSSC[C@@H](C(=O)N[C@@H](Cc2c[nH]c3ccccc23)C(=O)N2CCC[C@H]2C(N)=O)NC(=O)[C@H](CC(=O)O)NC(=O)[C@H](CCCCNC(=O)CNC(=O)CNC(=O)CCC(=O)NCCCOCCOCCOCCCNC(=O)CN2CCN(CC(=O)O)CCN(CC(=O)O)CCN(CC(=O)O)CC2)NC(=O)[C@H](Cc2ccc3ccccc3c2)NC(=O)[C@H](CC(N)=O)NC(=O)[C@H](CC2CCNCC2)NC1=O)C1CCCCC1)[C@@H](C)O` [compound 406, Ac-W-T-(Chg)-C(3)-[3-(4-piperidinyl)-Ala]-N-(2Nal)-Lys(G-G-TTDS-DOTA)-D-C(3)-W-P-CONH2] (Ac-WT[Chg]C[Ala(piperidin-4-yl)]N[2Nal]K([Gly-Gly-Suc-X11])DCWP-NH2; disulfide 4-10), the Kd is under 1 nM. With `CCCC[C@H](NC(C)=O)C(=O)N[C@@H](Cc1c[nH]c2ccccc12)C(=O)N[C@H](C(=O)N[C@H](C(=O)N[C@H]1CSSC[C@@H](C(=O)N[C@@H](Cc2c[nH]c3ccccc23)C(=O)N2CCC[C@H]2C(N)=O)NC(=O)[C@H](CC(=O)O)NC(=O)[C@H](Cc2cnc[nH]2)NC(=O)[C@H](Cc2c[nH]c3ccccc23)NC(=O)[C@H](CC(N)=O)NC(=O)[C@H](CC(N)=O)NC1=O)[C@@H](C)CC)[C@@H](C)O` [compound 441, Ac-(L-Nle)-W-T-I-C(3)-N-N-W-H-D-C(3)-W-P-CONH2] (Ac-[Nle]WTICNNWHDCWP-NH2; disulfide 5-11) the figure was 10 to 100 nM. Under `CC[C@H](C)[C@H](NC(=O)[C@@H](NC(=O)[C@H](Cc1c[nH]c2ccccc12)NC(=O)[C@H](CCSC)NC(C)=O)[C@@H](C)O)C(=O)N[C@H]1CSSC[C@@H](C(=O)N[C@@H](Cc2c[nH]c3ccccc23)C(=O)N2CCC[C@H]2C(N)=O)NC(=O)[C@H](CC(=O)O)NC(=O)[C@H](Cc2cnc[nH]2)NC(=O)[C@H](Cc2c[nH]c3ccccc23)NC(=O)[C@H](CC(N)=O)NC(=O)[C@H](C)NC1=O` [compound 15, Ac-M-W-T-I-C(3)-(L-Ala)-N-W-H-D-C(3)-W-P-CONH2] (Ac-MWTICANWHDCWP-NH2; disulfide 5-11) stands 1 to 10 nM.

For the compound `CC[C@H](C)[C@H](NC(=O)[C@@H](NC(=O)[C@H](Cc1c[nH]c2ccccc12)NC(=O)[C@H](C)NC(C)=O)[C@@H](C)O)C(=O)N[C@H]1CSSC[C@@H](C(=O)N[C@@H](Cc2c[nH]c3ccccc23)C(=O)N2CCC[C@H]2C(N)=O)NC(=O)[C@H](CC(=O)O)NC(=O)[C@H](Cc2cnc[nH]2)NC(=O)[C@H](Cc2c[nH]c3ccccc23)NC(=O)[C@H](CC(N)=O)NC(=O)[C@H](CC(N)=O)NC1=O` [compound 11, Ac-(L-Ala)-W-T-I-C(3)-N-N-W-H-D-C(3)-W-P-CONH2] (Ac-AWTICNNWHDCWP-NH2; disulfide 5-11), the Kd lay within 1 to 10 nM. For the compound `CC[C@@H](C)[C@@H](NC(=O)[C@H](NC(=O)[C@@H](Cc1c[nH]c2ccccc12)NC(C)=O)[C@H](C)O)C(=O)N[C@H]1CC(=O)NCC[C@@H](C(=O)N[C@@H](Cc2c[nH]c3ccccc23)C(=O)N2CCC[C@H]2C(N)=O)NC(=O)[C@H](CC(=O)O)NC(=O)[C@H](Cc2c[nH]cn2)NC(=O)[C@H](Cc2c[nH]c3ccccc23)NC(=O)[C@H](CC(N)=O)NC(=O)[C@H](CC(N)=O)NC1=O` [compound 95, Ac-W-T-I-(L-Asp)*-N-N-W-H-D-(L-2,4-Dab)*-W-P-CONH2 (* denotes lactam between side chains between L-Asp and L-2,4-Dab)] (Ac-[dW][dT][dI]DNNWHD[Dab]WP-NH2; lactam 4-10), the Kd lay in the range of 100 to 300 nM. With `CC(=O)N[C@@H](Cc1c[nH]c2ccccc12)C(=O)N[C@H](C(=O)N[C@H](C(=O)N[C@H]1CSCc2cccc(c2)CSC[C@@H](C(=O)N[C@@H](Cc2c[nH]c3ccccc23)C(=O)N2CCC[C@H]2C(N)=O)NC(=O)[C@H](CC(=O)O)NC(=O)[C@H](CCCCNC(=O)CN2CCN(CC(=O)O)CCN(CC(=O)O)CCN(CC(=O)O)CC2)NC(=O)[C@H](Cc2ccc3ccccc3c2)NC(=O)[C@H](CC(N)=O)NC(=O)[C@H](CC2CCNCC2)NC1=O)C1CCCCC1)[C@@H](C)O` [compound 402, Ac-W-T-(Chg)-C(mDBX)-[3-(4-piperidinyl)-Ala]-N-(2Nal)-Lys(DOTA)-D-C(3)-W-P-CONH2] (Ac-WT[Chg]C[Ala(piperidin-4-yl)]N[2Nal]K(DOTA)DCWP-NH2; linker 4-10 via mXylylene) the figure was 100 to 300 nM; with `CC(=O)N[C@@H](Cc1c[nH]c2ccccc12)C(=O)N[C@H](C(=O)N[C@H](C(=O)N[C@H]1CSCSC[C@@H](C(=O)N[C@@H](Cc2c[nH]c3ccccc23)C(=O)N2CCC[C@H]2C(N)=O)NC(=O)[C@H]([C@@H](C)O)NC(=O)[C@H](CCCCNC(=O)CN2CCN(CC(=O)O)CCN(CC(=O)O)CCN(CC(=O)O)CC2)NC(=O)[C@H](Cc2ccc3ccccc3c2)NC(=O)[C@H](CC(N)=O)NC(=O)[C@H](CC2CCNCC2)NC1=O)C1CCCCC1)[C@@H](C)O` [compound 399, Ac-W-T-(Chg)-C(1)-[3-(4-piperidinyl)-Ala]-N-(2Nal)-Lys(DOTA)-(Thr)-C(1)-W-P-CONH2] (Ac-WT[Chg]C[Ala(piperidin-4-yl)]N[2Nal]K(DOTA)TCWP-NH2; linker 4-10 via CH2), under 1 nM. On to `CC[C@H](C)[C@H](NC(=O)[C@@H](NC(=O)[C@H](Cc1c[nH]c2ccccc12)NC(=O)[C@H](CCSC)NC(C)=O)[C@@H](C)O)C(=O)N[C@H]1CSSC[C@@H](C(=O)N[C@@H](Cc2cn(C)c3ccccc23)C(=O)N2CCC[C@H]2C(N)=O)NC(=O)[C@H](CC(=O)O)NC(=O)[C@H](Cc2c[nH]cn2)NC(=O)[C@H](Cc2c[nH]c3ccccc23)NC(=O)[C@H](CC(N)=O)NC(=O)[C@H](CC(N)=O)NC1=O` [compound 43, Ac-M-W-T-I-C(3)-N-N-W-H-D-C(3)-(1Me-W)-P-CONH2] (Ac-MWTICNNWHDC[Trp(1-Me)]P-NH2; disulfide 5-11), for which the Kd fell in the range of 10 to 100 nM. With `CC[C@H](C)[C@H](NC(=O)[C@@H](NC(=O)[C@H](Cc1c[nH]c2ccccc12)NC(=O)[C@@H](C)NC(C)=O)[C@@H](C)O)C(=O)N[C@H]1CSSC[C@@H](C(=O)N[C@@H](Cc2c[nH]c3ccccc23)C(=O)N2CCC[C@H]2C(N)=O)NC(=O)[C@H](CC(=O)O)NC(=O)[C@H](Cc2cnc[nH]2)NC(=O)[C@H](Cc2c[nH]c3ccccc23)NC(=O)[C@H](CC(N)=O)NC(=O)[C@H](CC(N)=O)NC1=O` [compound 2, Ac-(D-Ala)-W-T-I-C(3)-N-N-W-H-D-C(3)-W-P-CONH2] (Ac-[dA]WTICNNWHDCWP-NH2; disulfide 5-11) the figure was 1 to 10 nM; with `CC(=O)N[C@@H](Cc1c[nH]c2ccccc12)C(=O)N[C@H](C(=O)N(C)[C@@H](CC(C)(C)C)C(=O)N[C@H]1CSCSC[C@@H](C(=O)N[C@@H](Cc2c[nH]c3ccccc23)C(=O)N2CCC[C@H]2C(N)=O)NC(=O)[C@H](CC(=O)O)NC(=O)[C@H](CCCCNC(=O)CN2CCN(CC(=O)O)CCN(CC(=O)O)CCN(CC(=O)O)CC2)NC(=O)[C@H](Cc2ccc3ccccc3c2)NC(=O)[C@H](CC(N)=O)NC(=O)[C@H](CC2CCN(CC(=O)O)CC2)NC1=O)[C@@H](C)O` [compound 447] (Ac-WT[NMetBuAla]C[Ala(1-CH2CO2H-4-piperidyl)]N[2Nal]K(DOTA)DCWP-NH2; linker 4-10 via CH2), under 1 nM; with `CC(=O)N[C@@H](Cc1c[nH]c2ccccc12)C(=O)N[C@H](C(=O)N[C@@H](CC1CCCCC1)C(=O)N[C@H]1CSSC[C@@H](C(=O)N[C@@H](Cc2c[nH]c3ccccc23)C(=O)N2CCC[C@H]2C(N)=O)NC(=O)[C@H](CC(=O)O)NC(=O)[C@H](Cc2cnc[nH]2)NC(=O)[C@H](Cc2c[nH]c3ccccc23)NC(=O)[C@H](CC(N)=O)NC(=O)[C@H](CC(N)=O)NC1=O)[C@@H](C)O` [compound 340, Ac-W-T-(CHA)-C(3)-N-N-W-H-D-C(3)-W-P-CONH2] (Ac-WT[Cha]CNNWHDCWP-NH2; disulfide 4-10), 1 to 10 nM. Under `CC[C@H](C)[C@H](NC(=O)[C@@H](NC(=O)[C@H](Cc1c[nH]c2ccccc12)NC(C)=O)[C@@H](C)O)C(=O)N[C@H]1CC=CC[C@@H](C(=O)N[C@@H](Cc2c[nH]c3ccccc23)C(=O)N2CCC[C@H]2C(N)=O)NC(=O)[C@H](CC(=O)O)NC(=O)[C@H](Cc2cnc[nH]2)NC(=O)[C@H](Cc2c[nH]c3ccccc23)NC(=O)[C@H](CC(N)=O)NC(=O)[C@H](CC(N)=O)NC1=O` [compound 331] (Ac-WTI[AllylGly]NNWHD[AllylGly]WP-NH2; staple 4-10) stands 100 to 300 nM.

Values taken from patent US20250049970A1, “DLL3 TARGETING PEPTIDES AND CONSTRUCTS THEREOF” (MARIANA ONCOLOGY INC., priority 2023, published 2025).
